In the supplement of paper PMC13380429:

Legend:
Conditions in all cases: 72 h
[1] = system: U2OS; experiment: drug sensitivity score (DSS) for viability; higher = more toxic; extreme values may be limits of the assay
[2] = system: Caco-2; experiment: as above
[3] = system: Vero E6; experiment: as above
[4] = system: HepG2; experiment: as above
[5] = system: Calu-3; experiment: as above
[6] = system: U2OS; experiment: relative viability EC50 (midpoint between 100% and the lowest measured viability); higher = less toxic
[7] = system: Caco-2; experiment: as above
[8] = system: Vero E6; experiment: as above
[9] = system: HepG2; experiment: as above
[10] = system: Calu-3; experiment: as above
[11] = system: U2OS; experiment: cell viability relative to DMSO; higher = less toxic
[12] = system: Caco-2; experiment: as above
[13] = system: Vero E6; experiment: as above
[14] = system: HepG2; experiment: as above
[15] = system: Calu-3; experiment: as above

Work on CCOC(=O)C1=CCCC[C@H]1S(=O)(=O)Nc1ccc(F)cc1Cl [resatorvid] yielded a drug sensitivity score [1] of 0, a drug sensitivity score [2] of 0 and a drug sensitivity score [3] of 0. For the same compound, the drug sensitivity score [4] was 0, the drug sensitivity score [5] was 0 and the “relative viability EC50” value [6] was greater than 10 µM. For the same compound, the “relative viability EC50” value [7] was greater than 10 µM, the “relative viability EC50” value [8] was greater than 10 µM and the “relative viability EC50” value [9] was greater than 10 µM. The “relative viability EC50” value [10] was greater than 10 µM, the cell viability ([11]; 1 nM) was 100% and the cell viability ([11]; 10 nM) was 97.7%. It also gave a cell viability ([11]; 100 nM) of 96.9%, a cell viability ([11]; 1000 nM) of 99.6% and a cell viability ([11]; 10000 nM) of 94.7%. For the same compound, the cell viability ([12]; 1 nM) was 98.4%, the cell viability ([12]; 10 nM) was 98.9% and the cell viability ([12]; 100 nM) was 93.6%. It also gave a cell viability ([12]; 1000 nM) of 99%, a cell viability ([12]; 10000 nM) of 96.1% and a cell viability ([13]; 1 nM) of 95.2%. It also gave a cell viability ([13]; 10 nM) of 103%, a cell viability ([13]; 100 nM) of 97.6% and a cell viability ([13]; 1000 nM) of 88.4%. For the same compound, the cell viability ([13]; 10000 nM) was 98.4%, the cell viability ([14]; 1 nM) was 104% and the cell viability ([14]; 10 nM) was 95.6%. It also gave a cell viability ([14]; 100 nM) of 109%, a cell viability ([14]; 1000 nM) of 110% and a cell viability ([14]; 10000 nM) of 98.6%. The cell viability ([15]; 1 nM) was 94.8%, the cell viability ([15]; 10 nM) was 104% and the cell viability ([15]; 100 nM) was 92.9%. The cell viability ([15]; 1000 nM) was 111% and the cell viability ([15]; 10000 nM) was 96.2%.
With CCOCc1nc2c(N)nc3ccccc3c2n1CC(C)(C)O [resiquimod] the drug sensitivity score [1] was 0, the drug sensitivity score [2] was 0 and the drug sensitivity score [3] was 0. For the same compound, the drug sensitivity score [4] was 0, the drug sensitivity score [5] was 0 and the “relative viability EC50” value [6] was greater than 10 µM. For the same compound, the “relative viability EC50” value [7] was greater than 10 µM, the “relative viability EC50” value [8] was greater than 10 µM and the “relative viability EC50” value [9] was greater than 10 µM. For the same compound, the “relative viability EC50” value [10] was greater than 10 µM, the cell viability ([11]; 1 nM) was 99.7% and the cell viability ([11]; 10 nM) was 103%. For the same compound, the cell viability ([11]; 100 nM) was 101%, the cell viability ([11]; 1000 nM) was 100% and the cell viability ([11]; 10000 nM) was 97.8%. The cell viability ([12]; 1 nM) was 97.7%, the cell viability ([12]; 10 nM) was 96.7% and the cell viability ([12]; 100 nM) was 97.3%. For the same compound, the cell viability ([12]; 1000 nM) was 90.4%, the cell viability ([12]; 10000 nM) was 91.3% and the cell viability ([13]; 1 nM) was 108%. For the same compound, the cell viability ([13]; 10 nM) was 101%, the cell viability ([13]; 100 nM) was 100% and the cell viability ([13]; 1000 nM) was 99.9%. For the same compound, the cell viability ([13]; 10000 nM) was 102%, the cell viability ([14]; 1 nM) was 103% and the cell viability ([14]; 10 nM) was 104%. The cell viability ([14]; 100 nM) was 103%, the cell viability ([14]; 1000 nM) was 101% and the cell viability ([14]; 10000 nM) was 94.5%. The cell viability ([15]; 1 nM) was 102%, the cell viability ([15]; 10 nM) was 101% and the cell viability ([15]; 100 nM) was 94.7%. The cell viability ([15]; 1000 nM) was 101% and the cell viability ([15]; 10000 nM) was 92%.
With Cc1cc2nc3c(=O)[nH]c(=O)nc-3n(C[C@H](O)[C@H](O)[C@H](O)COP(=O)(O)O)c2cc1C [riboflavin-5-phosphate-sodium] the drug sensitivity score [1] was 0, the drug sensitivity score [2] was 0 and the drug sensitivity score [3] was 0. For the same compound, the drug sensitivity score [4] was 0, the drug sensitivity score [5] was 0 and the “relative viability EC50” value [6] was greater than 10 µM. For the same compound, the “relative viability EC50” value [7] was greater than 10 µM, the “relative viability EC50” value [8] was greater than 10 µM and the “relative viability EC50” value [9] was greater than 10 µM. The “relative viability EC50” value [10] was greater than 10 µM, the cell viability ([11]; 1 nM) was 102% and the cell viability ([11]; 10 nM) was 97.9%. The cell viability ([11]; 100 nM) was 94.4%, the cell viability ([11]; 1000 nM) was 98.2% and the cell viability ([11]; 10000 nM) was 91.9%. The cell viability ([12]; 1 nM) was 97.8%, the cell viability ([12]; 10 nM) was 104% and the cell viability ([12]; 100 nM) was 103%. It also gave a cell viability ([12]; 1000 nM) of 100%, a cell viability ([12]; 10000 nM) of 90.3% and a cell viability ([13]; 1 nM) of 101%. For the same compound, the cell viability ([13]; 10 nM) was 102%, the cell viability ([13]; 100 nM) was 97.2% and the cell viability ([13]; 1000 nM) was 95.7%. For the same compound, the cell viability ([13]; 10000 nM) was 97.2%, the cell viability ([14]; 1 nM) was 97.8% and the cell viability ([14]; 10 nM) was 104%. It also gave a cell viability ([14]; 100 nM) of 101%, a cell viability ([14]; 1000 nM) of 98% and a cell viability ([14]; 10000 nM) of 108%. For the same compound, the cell viability ([15]; 1 nM) was 91.4%, the cell viability ([15]; 10 nM) was 102% and the cell viability ([15]; 100 nM) was 92.7%. It also gave a cell viability ([15]; 1000 nM) of 104% and a cell viability ([15]; 10000 nM) of 99.8%.
CS(=O)(=O)c1ccc(C2=C(c3ccccc3)C(=O)OC2)cc1 [rofecoxib] gave a drug sensitivity score [1] of 0, a drug sensitivity score [2] of 0 and a drug sensitivity score [3] of 0. The drug sensitivity score [4] was 0, the drug sensitivity score [5] was 0 and the “relative viability EC50” value [6] was greater than 10 µM. The “relative viability EC50” value [7] was greater than 10 µM, the “relative viability EC50” value [8] was greater than 10 µM and the “relative viability EC50” value [9] was greater than 10 µM. For the same compound, the “relative viability EC50” value [10] was greater than 10 µM, the cell viability ([11]; 1 nM) was 101% and the cell viability ([11]; 10 nM) was 98.9%. The cell viability ([11]; 100 nM) was 100%, the cell viability ([11]; 1000 nM) was 98.8% and the cell viability ([11]; 10000 nM) was 99.5%. It also gave a cell viability ([12]; 1 nM) of 96.4%, a cell viability ([12]; 10 nM) of 93.8% and a cell viability ([12]; 100 nM) of 100%. The cell viability ([12]; 1000 nM) was 91.1%, the cell viability ([12]; 10000 nM) was 92.7% and the cell viability ([13]; 1 nM) was 93.6%. It also gave a cell viability ([13]; 10 nM) of 105%, a cell viability ([13]; 100 nM) of 88.4% and a cell viability ([13]; 1000 nM) of 95.3%. The cell viability ([13]; 10000 nM) was 102%, the cell viability ([14]; 1 nM) was 95.7% and the cell viability ([14]; 10 nM) was 104%. For the same compound, the cell viability ([14]; 100 nM) was 95.2%, the cell viability ([14]; 1000 nM) was 103% and the cell viability ([14]; 10000 nM) was 101%. For the same compound, the cell viability ([15]; 1 nM) was 99.1%, the cell viability ([15]; 10 nM) was 100% and the cell viability ([15]; 100 nM) was 98%. For the same compound, the cell viability ([15]; 1000 nM) was 101% and the cell viability ([15]; 10000 nM) was 102%.
